In patent US7083969B2, “Serratia marcescens strain” (Korea Research Institute of Bioscience and Biotechnology, priority 1997, dated 2006):

How the values were obtained:
CD8 T lymphocytes = settings: known; cited from earlier work
T lymphocytes [1] = settings: known; cited from earlier work
[2] = Weight ratio of the spleen to the body (toxicity); type: in vivo, mice
Protocol: (§1) A T cell-dependent immune response reaction was used to assess the influence of prodigiosin on T lymphocytes in vivo. Test animals were immunized with sheep red blood cells by peritoneal injection. 4 days after the immunization, the number of the antibody producing cells was counted. Prodigiosin was peritoneally injected everyday. Based on the number of the […] cells in the non-treated animals, the influence of prodigiosin on T lymphocytes in vivo was assessed as percentage. Also, the weight ratio of the spleen to the body was measured to assay the toxicity of prodigiosin to the animals. Cyclophosphamide was used as a positive control.

T lymphocytes [3] = experiment: Graft versus host reaction in vivo (lymphatic node weight); parameters: species or system BDF1 mice; settings: 100 mg/kg peritoneally for five days; sixth day after transplantation
Description: (§2) Germ-free test animals, mice BDF1 and B6C3F1, obtained from Genetic Resources Center, Korean Research Institute of Bioscience and Biotechnology in the Korean Institute of Science and Technology, were used for the assay of the immunosuppressive activity of prodigiosin. […] At such concentrations as show no cytotoxic effects, prodigiosin cannot suppress the immune response of B lymphocytes. […] This selective immunosuppression for T lymphocytes is not ascribed to the selective cytotoxicity for T lymphocytes. The same immunosuppression results as in the ex vivo experiments were obtained in in vivo experiments. When T lymphocyte activity was measured by use of a graft versus host reaction and a T cell-dependent antibody producing reaction, the prodigiosin suppressed the immune response, but exerted no toxicity on animals. Therefore, the immunosuppressive activity of the prodigiosin is thought to be attributed to the selective suppression for T lymphocyte activity.
(§3) A graft versus host reaction was utilized for the in vivo assay of prodigiosin's immunosuppression. The graft versus host reaction enables an assessment of the immune response of T lymphocytes. On the sixth day after transplantation of the T lymphocytes of BDF1 mice different in histocompatibility antigen, the lymphatic nodes were measured for weight, thereby assessing the immune response of T lymphocyte to the grafted heteroantigens. The prodigiosin was peritoneally injected at a dose of 30–100 mg per kg of body weight for five days while cyclophosphamide, as a positive control, was peritoneally injected at a dose of 100 mg/kg for five days. The body weights of the injected mice were measured to compare the toxicity of prodigiosin with that of cyclophosphamide. […] As for the body weight, it was not changed in the mice injected with prodigiosin at an effective concentration.

T lymphocytes [4] = experiment: T cell-dependent immune response in vivo (antibody producing cells after sheep red blood cell immunization); parameters: species or system mice; settings: 100 mg/kg; 4 days after immunization
Description: as §2, §1

[5] = Body weight of injected mice in graft versus host experiment (toxicity); type: in vivo
Protocol: as §3

Structure (SMILES) | suppression of CD8 T lymphocytes (CD8 T lymphocytes) | proliferation of T lymphocytes (T lymphocytes [1]) | Wt. Ratio of spleen/body (%) ([2]; 100 mg/kg) | toxicity judged by weight ratio of the spleen to the body ([2]; at effective concentrations) | Wt. (mg) of Lymphatic node (T lymphocytes [3]) [mg] | Immune Response (%) (T lymphocytes [4]) | Body weight ([5]; 100 mg/kg peritoneally for five days) [g] | body weight change ([5]; at an effective concentration)
CCCCCCCCCCCc1ccc(/C=C2\N=C(c3ccc[nH]3)C=C2OC)[nH]1 [Prodigiosin 25-C, prodigiosin 25-C] | suppressed | suppress | – | – | – | – | – | –
O=P1(N(CCCl)CCCl)NCCCO1 (centres unmarked) [Cyclophosphamide, reference compound] | – | – | 26 | very toxic | 0.06 | 7 | 18 | loss of body weight
